Laboratory results taken from US8349850B2, “Heterocyclic compounds and uses thereof in the treatment of sexual disorders” (ATIR Holding S.A., priority 2006, dated 2013).

Assays:
[1] = biological target: T1, PDE5 partially purified from human platelets (Homo sapiens, UniProt O76074); experiment: Phosphodiesterase Type 5 (PDE5) Inhibition; assay type: biochemical; conditions: for inhibition at 50 µM: 50 mcM compound, 1 μM cGMP; for PDE5 IC50, 10^−6 M / IC50: 'active' = observed activity not quantitated; for IC50: read-out: PDE5 IC50, 10^−6 M
T1 construct: PDE5 partially purified from human platelets was used; from tissue; host or cells: human platelets
Protocol: Phosphodiesterase type 5 (PDE5) catalyzes the conversion of cAMP or cGMP to their respective monophosphate forms. PDE5 has a high Km for cAMP and a low Km for cGMP, is insensitive to Ca^2+/calmodulin or cGMP regulation, and is relatively sensitive to inhibitors such as dipyridamol and zaprinast.
PDE5 partially purified from human platelets was used. The tested compound (at a concentration of 0.1, 1, 20 or 50 μM) and/or vehicle was incubated with 3.5 μg enzyme and 1 μM cGMP containing 0.01 μM [^3H]cGMP in Tris buffer pH 7.5 for 20 minutes at 30° C. Since enzyme activity may change from lot to lot, the concentration used was adjusted if required.
The reaction was terminated by boiling the reaction mixture for 2 minutes. The obtained GMP was then converted to guanosine by addition of 10 mg/ml snake venom nucleotidase and further incubation at 30° C. for 10 minutes. Unhydrolyzed cGMP was bound to AG1-X2 resin, and remaining [^3H]Guanosine in the aqueous phase was quantitated by scintillation counting.

D4.4 receptor = biological target: T2, D4.4 receptor (Homo sapiens, UniProt P21917); experiment: Competitive binding to D4.4 dopamine receptor ([3H]-YM-09151-2 radioligand); conditions: 5 mcM compound; human recombinant D4.4 in CHO cells; na = no activity
T2 construct: expressed in transfected cells; host or cells: CHO cells
T2 sequence (P21917 1-419): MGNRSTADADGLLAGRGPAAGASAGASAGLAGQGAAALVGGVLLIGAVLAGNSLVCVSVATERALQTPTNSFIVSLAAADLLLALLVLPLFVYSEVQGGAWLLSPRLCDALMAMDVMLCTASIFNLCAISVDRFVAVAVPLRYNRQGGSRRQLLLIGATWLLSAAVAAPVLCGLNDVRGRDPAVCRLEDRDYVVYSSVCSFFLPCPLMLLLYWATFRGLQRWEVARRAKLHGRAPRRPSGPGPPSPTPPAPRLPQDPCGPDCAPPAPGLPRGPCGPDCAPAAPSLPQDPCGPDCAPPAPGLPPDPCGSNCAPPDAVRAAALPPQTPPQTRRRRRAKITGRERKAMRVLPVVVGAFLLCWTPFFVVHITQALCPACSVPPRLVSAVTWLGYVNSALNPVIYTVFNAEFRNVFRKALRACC
Protocol: Compounds were assayed for competitive binding to D2 SHORT and D4.4 type dopamine receptors. Both receptor types are expressed as human recombinant proteins in CHO cells, as described, for example, in Jarvis et al. (1973); Van Tol et al. (1991) and Van Tol et al. (1992).
Determination of binding to D4.4 receptor was performed using [^3H]-YM-09151-2 (70-87 Ci/mmol, 0.3 nM), as a radioligand, in with the presence of various concentrations of the tested compound. Reactions were carried out in 50 mM TRIS-HCl (pH 7.4) containing 5 mM MgCl2, 5 mM EDTA, 5 mM KCl and 1.5 mM CaCl2, for 60 minutes at 22° C. The reaction was terminated by rapid vacuum filtration onto glass fiber filters. Radioactivity trapped onto the filters was determined (counted) and compared to control values in order to accurately evaluate any interaction of the tested compound(s) with the cloned dopamine D4.4 binding site.

| Compound | inhibition at 50 µM [1] [%] | inhibition at 5 µM (D4.4 receptor) [%] | further results |
| --- | --- | --- | --- |
| O=c1[nH]c(CN2CCN(c3ccccn3)CC2)nc2ccccc12 [Compound 102, 2-[(4-pyridin-2-ylpiperazin-1-yl)methyl]quinazolin-4(3H)-one] | 29 |  | PDE5 IC50, 10^−6 M [1]: active |
| O=c1[nH]c(CN2CC=C(c3ccccn3)CC2)nc2ccccc12 [Compound 115, 2-(3′,6′-dihydro-2,4′-bipyridin-1′(2′H)-ylmethyl)quinazolin-4(3H)-one] |  | 66 |  |
| O=c1[nH]c(CN2CCN(c3ncccn3)CC2)nc2ccccc12 [Compound 123, 2-[(4-pyrimidin-2-ylpiperazin-1-yl)methyl]quinazolin-4(3H)-one] | 61 | 13 | IC50 [1]: 26 µM |
| O=c1[nH]c(CN2CCN(c3ncccn3)CC2)nc2nc[nH]c12 [Compound 408, 2-((4-(pyrimidin-2-yl)piperazin-1-yl)methyl)-1H-purin-6(7H)-one] | 32 | 33 | PDE5 IC50, 10^−6 M [1]: active |
| O=c1[nH]c(CN2CCN(c3ccccn3)CC2)nc2nc[nH]c12 [Compound 409, 2-((4-(pyridin-2-yl)piperazin-1-yl)methyl)-1H-purin-6(7H)-one] | 24 | 8 | PDE5 IC50, 10^−6 M [1]: active |
| O=c1[nH]c(CN2CCN(c3cccc(O)c3)CC2)nc2cc(Cl)ccc12 [Compound B-3] |  |  | D4.4(h) Competitive Binding, % at 5 mcM (D4.4 receptor): 82% |
| COc1cc2nc(CN3CCN(c4cccc(O)c4)CC3)[nH]c(=O)c2cc1OC [Compound B-4, 2-((4-(3-hydroxyphenyl)piperazin-1-yl)methyl)-6,7-dimethoxyquinazolin-4(3H)-one] | 25 | 91 | PDE5 IC50, 10^−6 M [1]: active |
| O=c1[nH]c(CN2CCN(c3cccc(O)c3)CC2)nc2cc(Cl)ccc12 [Compound B-8, 7-chloro-2-((4-(3-hydroxyphenyl)piperazin-1-yl)methyl)quinazolin-4(3H)-one] | 28 | 90 | PDE5 IC50, 10^−6 M [1]: active |
| Cc1cccc2nc(CN3CCN(c4cccc(O)c4)CC3)[nH]c(=O)c12 [Compound B-9, 2-((4-(3-hydroxyphenyl)piperazin-1-yl)methyl)-5-methylquinazolin-4(3H)-one] | 47 | 89 | PDE5 IC50, 10^−6 M [1]: active |
| O=c1[nH]c(CN2CCN(c3ncccc3OCc3ccccc3)CC2)nc2ccccc12 [Compound B-10, 2-((4-(3-(benzyloxy)pyridin-2-yl)piperazin-1-yl)methyl)quinazolin-4(3H)-one] | 40 | 60 | PDE5 IC50, 10^−6 M [1]: active |
| O=c1[nH]c(CN2CCN(c3nccs3)CC2)nc2ccccc12 [Compound B-11, 2-((4-(thiazol-2-yl)piperazin-1-yl)methyl)quinazolin-4(3H)-one] | 68 | 18 | IC50 [1]: 2 µM |
| CCOc1cccnc1N1CCN(Cc2nc3ccccc3c(=O)[nH]2)CC1 [Compound B-13, 2-((4-(3-ethoxypyridin-2-yl)piperazin-1-yl)methyl)quinazolin-4(3H)-one] |  | 86 |  |
| CCCOc1cccnc1N1CCN(Cc2nc3ccccc3c(=O)[nH]2)CC1 [Compound B-14, 2-((4-(3-propoxypyridin-2-yl)piperazin-1-yl)methyl)quinazolin-4(3H)-one] | 70 | 81 | IC50 [1]: 9 µM; exhibit both PDE5 inhibition and D4 agonist activity (dual activity) ([1]; referring to Table 2 (PDE5 and D4 assays)): both PDE5 inhibition and D4 agonist activity |
| COc1ccccc1C1=CCN(Cc2nc3ccccc3c(=O)[nH]2)CC1 [Compound B-31, 2-((5,6-dihydro-4-(2-methoxyphenyl)pyridin-1(2H)-yl)methyl)quinazolin-4(3H)-one] |  | 74 |  |
| CCCn1cnc2nc(CN3CCN(c4cccc(O)c4)CC3)[nH]c(=O)c21 [Compound B-33, 2-((4-(3-hydroxyphenyl)piperazin-1-yl)methyl)-7-propyl-1H-purin-6(7H)-one] | 31 | 11 | PDE5 IC50, 10^−6 M [1]: active |
| N#Cc1ccccc1N1CCN(Cc2nc3ccccc3[nH]c2=O)CC1 [Compound B-34, 2-(4-((1,2-dihydro-2-oxoquinoxalin-3-yl)methyl)piperazin-1-yl)benzonitrile] |  | 84 |  |

| Compound | inhibition at 50 µM [1] [%] | inhibition at 5 µM (D4.4 receptor) [%] | further results |
| --- | --- | --- | --- |
| O=c1[nH]c(CN2CCN(c3cccc(O)c3)CC2)nc2cccc(F)c12 [Compound B-36, 5-fluoro-2-((4-(3-hydroxyphenyl)piperazin-1-yl)methyl)quinazolin-4(3H)-one] |  | 82 |  |
| O=c1[nH]c2ccccc2nc1CN1CCN(c2cccc(O)c2)CC1 [Compound B-37, 3-((4-(3-hydroxyphenyl)piperazin-1-yl)methyl)quinoxalin-2(1H)-one] |  | 62 |  |
| COc1ccccc1N1CCN(Cc2nc3cc(Cl)ccc3c(=O)[nH]2)CC1 [Compound B-38, 7-chloro-2-((4-(2-methoxyphenyl)piperazin-1-yl)methyl)quinazolin-4(3H)-one] |  | 65 |  |
| COc1ccccc1C1=CCN(Cc2nc3cc(Cl)ccc3c(=O)[nH]2)CC1 [Compound B-39, 7-chloro-2-((5,6-dihydro-4-(2-methoxyphenyl)pyridin-1(2H)-yl)methyl)quinazolin-4(3H)-one] |  | 95 |  |
| O=c1[nH]c2ccccc2nc1CN1CC=C(c2ccccc2)CC1 [Compound B-42, 3-((5,6-dihydro-4-phenylpyridin-1(2H)-yl)methyl)quinoxalin-2(1H)-one] |  | 62 |  |
| CCOc1cccnc1N1CCN(Cc2nc3cc(Cl)ccc3c(=O)[nH]2)CC1 [Compound B-43, 7-chloro-2-((4-(3-ethoxypyridin-2-yl)piperazin-1-yl)methyl)quinazolin-4(3H)-one] | 26 |  | PDE5 IC50, 10^−6 M [1]: active |
| O=c1[nH]c2ccccc2nc1CN1CCN(c2ncccn2)CC1 [Compound B-44, 3-((4-(pyrimidin-2-yl)piperazin-1-yl)methyl)quinoxalin-2(1H)-one] |  | 29 |  |
| CCOc1ccccc1N1CCN(Cc2nc3cc(Cl)ccc3c(=O)[nH]2)CC1 [Compound B-45, 7-chloro-2-((4-(2-ethoxyphenyl)piperazin-1-yl)methyl)quinazolin-4(3H)-one] |  | 46 |  |
| O=c1[nH]c(CN2CC=C(c3ccccc3)CC2)nc2cc(Cl)ccc12 [Compound B-47, 7-chloro-2-((5,6-dihydro-4-phenylpyridin-1(2H)-yl)methyl)quinazolin-4(3H)-one] |  | 63 |  |
| O=c1[nH]c(CN2CCC(c3ccccc3)CC2)nc2ccccc12 [Compound B-51, 2-((4-phenylpiperidin-1-yl)methyl)quinazolin-4(3H)-one] |  | 88 |  |
| O=c1[nH]c(CN2CC=C(c3ccccn3)CC2)nc2cc(Cl)ccc12 [Compound B-71, 7-chloro-2-((5,6-dihydro-4-(pyridin-2-yl)pyridin-1(2H)-yl)methyl)quinazolin-4(3H)-one] | 63 |  | IC50 [1]: 27 µM |
| O=c1c2ccccc2nc(CN2CCN(c3ncccn3)CC2)n1Cc1ccccc1 [Compound B-75, 3-benzyl-2-((4-(pyrimidin-2-yl)piperazin-1-yl)methyl)quinazolin-4(3H)-one] | 73 |  | IC50 [1]: 21 µM |
| O=c1[nH]c(CN2CCCC(c3ccccn3)C2)nc2ccccc12 (centres unmarked) [Compound B-83, 2-((3-(pyridin-2-yl)piperidin-1-yl)methyl)quinazolin-4(3H)-one] |  | 57 |  |
| CCn1c(=O)c2[nH]c(CN3CCN(c4cccc(O)c4)CC3)nc2n(CC)c1=O [Xan1, 1,3-diethyl-8-((4-(3-hydroxyphenyl)piperazin-1-yl)methyl)-1H-purine-2,6(3H,7H)-dione] |  | 54 |  |
| CCn1c(=O)c2[nH]c(CN3CC=C(c4ccccc4)CC3)nc2n(CC)c1=O [Xan2] |  | 25 |  |
